Measured values taken from ChEMBL document CHEMBL5113469, “Synthesis and biological evaluation of a tumor-selective degrader of PARP1” (Bioorg Med Chem, 2022).
pIC50: −log10 of the molar value. The source made the active and inactive calls. The calls are words filed in the database; no cut-off is given here.

Legend:
[1] = target: T1, Protein cereblon/Poly [ADP-ribose] polymerase 1 (Homo sapiens, UniProt P09874+Q96SW2); assay: PROTAC activity at CRBN/PARP1 in human L02 cells assessed as induction of PARP1 degradation incubated for 24 hrs by western blot analysis; format: cell-based
Target sequence in this assay (P09874 whole entry): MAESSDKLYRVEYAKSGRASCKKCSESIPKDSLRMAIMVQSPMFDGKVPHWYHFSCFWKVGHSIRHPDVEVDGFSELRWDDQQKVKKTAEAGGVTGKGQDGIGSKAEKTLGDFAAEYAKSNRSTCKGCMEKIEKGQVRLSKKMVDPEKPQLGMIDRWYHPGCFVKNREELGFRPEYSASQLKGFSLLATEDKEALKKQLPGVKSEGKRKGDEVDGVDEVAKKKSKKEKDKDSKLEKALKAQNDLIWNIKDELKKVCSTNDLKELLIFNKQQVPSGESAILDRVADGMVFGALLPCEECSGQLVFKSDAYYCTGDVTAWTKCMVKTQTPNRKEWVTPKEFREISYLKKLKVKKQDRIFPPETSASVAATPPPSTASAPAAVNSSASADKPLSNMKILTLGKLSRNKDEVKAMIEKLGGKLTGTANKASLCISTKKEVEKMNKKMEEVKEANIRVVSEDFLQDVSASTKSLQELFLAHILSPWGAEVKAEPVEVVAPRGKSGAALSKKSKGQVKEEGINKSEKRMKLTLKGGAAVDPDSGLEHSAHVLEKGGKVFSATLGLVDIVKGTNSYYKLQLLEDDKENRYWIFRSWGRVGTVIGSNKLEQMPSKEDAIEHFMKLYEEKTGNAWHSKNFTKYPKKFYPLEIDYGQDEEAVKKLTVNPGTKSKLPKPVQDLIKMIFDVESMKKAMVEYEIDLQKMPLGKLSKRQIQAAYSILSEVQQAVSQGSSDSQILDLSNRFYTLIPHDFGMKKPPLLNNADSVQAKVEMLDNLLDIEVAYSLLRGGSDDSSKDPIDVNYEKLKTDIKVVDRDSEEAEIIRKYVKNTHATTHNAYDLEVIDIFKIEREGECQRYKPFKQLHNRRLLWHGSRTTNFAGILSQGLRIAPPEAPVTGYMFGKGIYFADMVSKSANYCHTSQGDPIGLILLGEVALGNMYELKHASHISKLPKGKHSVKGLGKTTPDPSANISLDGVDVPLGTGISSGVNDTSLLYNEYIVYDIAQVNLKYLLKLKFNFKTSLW
Target sequence in this assay (Q96SW2 whole entry): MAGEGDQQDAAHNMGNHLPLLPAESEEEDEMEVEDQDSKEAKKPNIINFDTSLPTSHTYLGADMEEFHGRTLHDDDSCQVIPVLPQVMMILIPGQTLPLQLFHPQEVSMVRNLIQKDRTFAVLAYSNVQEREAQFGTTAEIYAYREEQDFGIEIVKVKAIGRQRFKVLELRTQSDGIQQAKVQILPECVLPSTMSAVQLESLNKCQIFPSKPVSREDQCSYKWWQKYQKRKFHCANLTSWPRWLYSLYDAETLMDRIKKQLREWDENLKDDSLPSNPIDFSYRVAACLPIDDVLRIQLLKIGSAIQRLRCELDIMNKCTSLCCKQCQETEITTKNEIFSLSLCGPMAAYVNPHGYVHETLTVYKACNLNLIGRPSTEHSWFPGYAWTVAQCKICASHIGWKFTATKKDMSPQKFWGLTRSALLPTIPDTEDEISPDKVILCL

[2] = tested on: MDA-MB-436; assay: Antiproliferative activity against human MDA-MB-436 cells assessed as cell growth inhibition incubated for 5 days by MTT assay; format: functional, cell-based; details: MDA-MB-436, 120 h
[3] = tested on: CAPAN-1; assay: Antiproliferative activity against human CAPAN-1 cells assessed as cell growth inhibition incubated for 5 days by MTT assay; format: functional, cell-based; details: CAPAN-1, 120 h
[4] = tested on: MDA-MB-468; assay: Antiproliferative activity against human MDA-MB-468 cells assessed as cell growth inhibition incubated for 5 days by MTT assay; format: functional, cell-based; details: MDA-MB-468, 120 h
[5] = tested on: MDA-MB-231; assay: Antiproliferative activity against human MDA-MB-231 cells assessed as cell growth inhibition incubated for 5 days by MTT assay; format: functional, cell-based; details: MDA-MB-231, 120 h
[6] = target: T1, Protein cereblon/Poly [ADP-ribose] polymerase 1; assay: PROTAC activity at CRBN/PARP1 in human MDA-MB-231 cells assessed as induction of PARP1 degradation at 1 uM incubated for 24 hrs by western blot analysis; format: cell-based
Target sequence in this assay (P09874 2-1014 limits assumed): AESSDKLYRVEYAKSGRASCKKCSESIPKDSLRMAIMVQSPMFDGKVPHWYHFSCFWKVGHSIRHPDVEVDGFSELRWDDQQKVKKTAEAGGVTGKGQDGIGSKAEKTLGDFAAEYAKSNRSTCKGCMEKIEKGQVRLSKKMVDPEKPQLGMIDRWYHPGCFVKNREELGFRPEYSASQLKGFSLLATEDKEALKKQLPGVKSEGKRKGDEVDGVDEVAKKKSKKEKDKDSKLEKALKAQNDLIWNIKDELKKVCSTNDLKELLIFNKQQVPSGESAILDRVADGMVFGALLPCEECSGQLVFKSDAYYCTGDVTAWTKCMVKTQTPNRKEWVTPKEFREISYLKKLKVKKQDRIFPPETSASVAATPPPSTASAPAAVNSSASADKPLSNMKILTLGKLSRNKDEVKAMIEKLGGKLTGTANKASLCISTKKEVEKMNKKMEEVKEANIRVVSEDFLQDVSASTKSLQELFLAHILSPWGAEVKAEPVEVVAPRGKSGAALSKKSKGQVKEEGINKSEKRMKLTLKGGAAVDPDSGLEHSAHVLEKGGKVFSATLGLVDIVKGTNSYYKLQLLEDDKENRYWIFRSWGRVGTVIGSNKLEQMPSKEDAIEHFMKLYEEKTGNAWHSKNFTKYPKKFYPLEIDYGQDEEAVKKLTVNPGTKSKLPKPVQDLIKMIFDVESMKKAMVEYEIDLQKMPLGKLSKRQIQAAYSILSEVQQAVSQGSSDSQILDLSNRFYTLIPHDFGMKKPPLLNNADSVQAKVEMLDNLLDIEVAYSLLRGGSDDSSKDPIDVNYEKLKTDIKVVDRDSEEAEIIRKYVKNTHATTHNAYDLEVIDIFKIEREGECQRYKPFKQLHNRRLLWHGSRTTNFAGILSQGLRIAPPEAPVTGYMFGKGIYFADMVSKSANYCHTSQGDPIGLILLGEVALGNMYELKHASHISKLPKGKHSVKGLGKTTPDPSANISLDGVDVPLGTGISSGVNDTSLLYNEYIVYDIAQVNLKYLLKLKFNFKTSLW
Target sequence in this assay (Q96SW2 whole entry partner): as the sequence (Q96SW2 whole entry) above

[7] = target: T1, Protein cereblon/Poly [ADP-ribose] polymerase 1; assay: PROTAC activity at CRBN/PARP1 in human MDA-MB-231 cells assessed as induction of PARP1 degradation at 0.12 to 4 uM incubated for 24 hrs by western blot analysis; format: cell-based; details: dose 0.12-4 µM, DDE = dose-dependent effect
Target sequence in this assay (P09874 2-1014 limits assumed): as the sequence (P09874 2-1014 limits assumed) above
Target sequence in this assay (Q96SW2 whole entry partner): as the sequence (Q96SW2 whole entry) above

SMILES	DC50 [1]	pIC50 [2]	pIC50 [3]	pIC50 [4]	pIC50 [5]	Activity [6]	Activity [7]
O=C(CCCCCCCCCCC(=O)N1CCN(C(=O)c2cc(Cc3n[nH]c(=O)c4ccccc34)ccc2F)CC1)NCCNc1cccc2c1C(=O)N(C1CCC(=O)NC1=O)C2=O (centres undefined)	2.89 nM						
O=C1CCC(N2C(=O)c3cccc(NC(=O)CNCC(=O)N4CCN(C(=O)c5cc(Cc6n[nH]c(=O)c7ccccc67)ccc5F)CC4)c3C2=O)C(=O)N1 (centres undefined)		< 5.00	< 5.00	< 4.70	< 4.70		
O=C1CCC(N2C(=O)c3cccc(NC(=O)CNCCCCCCCCCCCC(=O)N4CCN(C(=O)c5cc(Cc6n[nH]c(=O)c7ccccc67)ccc5F)CC4)c3C2=O)C(=O)N1 (centres undefined)		7.47	7.19	5.51	5.38		
O=C1CCC(N2C(=O)c3cccc(NC(=O)CNCCCCCCCCC(=O)N4CCN(C(=O)c5cc(Cc6n[nH]c(=O)c7ccccc67)ccc5F)CC4)c3C2=O)C(=O)N1 (centres undefined)		6.68	6.23	5.22	5.12	Active	
O=C1CCC(N2C(=O)c3cccc(NC(=O)CNCCCCCCCCCC(=O)N4CCN(C(=O)c5cc(Cc6n[nH]c(=O)c7ccccc67)ccc5F)CC4)c3C2=O)C(=O)N1 (centres undefined)		6.89	6.66	5.36	5.27	Active	
CN1C(=O)CCC(N2C(=O)c3cccc(NC(=O)CNCCCCCCCCCCC(=O)N4CCN(C(=O)c5cc(Cc6n[nH]c(=O)c7ccccc67)ccc5F)CC4)c3C2=O)C1=O (centres undefined)		7.28	6.80	5.39	5.34		Dde
O=C1CCC(N2C(=O)c3cccc(NC(=O)CNCCCCCCCC(=O)N4CCN(C(=O)c5cc(Cc6n[nH]c(=O)c7ccccc67)ccc5F)CC4)c3C2=O)C(=O)N1 (centres undefined)		6.54	6.19	5.11	4.98	Active	
